Reference: patent publication US20220401440A1, “DOSING REGIMENS FOR A PROTEIN KINASE C INHIBITOR” (IDEAYA BIOSCIENCES, INC., priority 2019, published 2022)
Where two headings read alike, the source gives them in different places.

What was measured:
[1] = test system: metastatic uveal melanoma (MUM); conditions: cited from earlier work
[2] = cited from earlier work; for Dose limiting toxicities (DLTs): evaluable patients
[3] = Hypotension studies: adverse events, single agent Compound (I) BID schedule (Table 5); format: in vivo, human
[4] = Phase 1/2 study: plasma pharmacokinetics of Compound (I) in patients (LC-MS/MS, non-compartmental analysis); format: in vivo, human; conditions: for Race: mean ± SD; for AUC(0-t) / Cmax: plasma, oral; for Cmax: read-out: Cmax
Description: The following example presents a phase 1/2 study of Compound (I) in patients with solid tumors harboring GNAQ/11 mutations or PRKC fusions.
Patients with MUM were sequentially enrolled into Cohort 1 or Cohort 2. Enrollment into Cohort 2 was not initiated until enrollment into Cohort 1 was completed and the dose considered safe. • a. Cohort 1. 6 patients were sequentially enrolled and received 300 mg twice a day (BID), daily, for 28-day treatment cycles. • b. Cohort 2. 6 patients were sequentially enrolled and received 400 mg BID, preceded by an initial 7-day 200 mg BID run-in period, for 28-day treatment cycles. All patients continue to receive treatment with Compound (I) unless the subject experiences one or more of the following: • Adverse event • Lost to follow-up • Physician decision • Progressive disease • Study termination by the Sponsor • Patient/guardian decision • Protocol deviation • Non-compliance with protocol • Death • Pregnancy NUMBER OF SUBJECTS: 12 patients
The following example presents pharmacokinetic results from the study as described in Example 1.
Blood samples were collected on Cycle 1 Day 1 and Day 15 from patients who were administered 300 mg BID of Compound (I), and on Cycle 1 Day 8 and Day 22 from patients who were administered 200 mg BID for 7 days followed by 400 mg BID of Compound (I) for the remainder of the treatment cycle. The plasma samples were processed by protein precipitation (see Ahuja S and Dong M. W, Handbook of Pharmaceutical Analysis by HPLC, Elsevier Inc., Chapter 17, page 433, 2005) and analyzed using an LC-MS/MS method; Quantification was achieved using Compound (I) peak area to internal standard (3-amino-N-(3-(4-amino-4-(methyl-d3)piperidin-1-yl)pyridin-2-yl)-6-(3-(trifluoromethyl)pyridin-2-yl)pyrazine-2-carboxamide) peak area ratios. Concentrations of the calibration curve standards, quality control samples, and patient samples were determined by the method of 1/x^2 weighted least squares linear regression.
The Pharmacokinetic parameters were calculated using Phoenix WinNonlin software (non-compartmental analysis).

[5] = cohort that received BID dosing of 200 to 400 mg
[6] = 300 mg BID, N = 18, regardless of study drug relationship
[7] = 400 mg, N = 6, regardless of study drug relationship
[8] = All BID Patients, N = 30, regardless of study drug relationship

CC1(N)CCN(c2cccnc2NC(=O)c2nc(-c3ncccc3C(F)(F)F)cnc2N)CC1 [Compound (I), 3-amino-N-(3-(4-amino-4-methylpiperidin-1-yl)pyridin-2-yl)-6-(3-(trifluoromethyl)pyridin-2-yl)pyrazine-2-carboxamide]
confirmed partial responses (PRs) ([1]; 68 patients, QD and BID, as of September 2018, preliminary): six
unconfirmed PRs ([1]; 68 patients, as of September 2018, preliminary): two
confirmed PRs [1, 5]: Four
patients with SD as best response (2 being unconfirmed PRs) [1, 5]: 18
Dose limiting toxicities (DLTs) ([2]; BID schedule): 2 of 17
maximum tolerated dose ([2]; BID schedule): 400 mg BID
Dose limiting toxicities (DLTs) ([2]; QD schedule): 7 of 38
maximum tolerated dose ([2]; QD schedule): 500 mg QD
most common DLT ([2]; human, in vivo): hypotension
recommended dose for expansion (RDE) ([2]; human, in vivo): 300 mg BID
Hypotension, all grades [3, 6]: 3 (16.7)
Hypotension, grade >3 [3, 6]: 0
Hypotension, all grades [3, 7]: 4 (66.7)
Hypotension, grade >3 [3, 7]: 1 (16.7)
Hypotension, all grades [3, 8]: 7 (23.3)
Hypotension, grade >3 [3, 8]: 1 (3.3)
Free AUC0-12 (mean free plasma) ([4]; 300 mg BID): 260 ± 95 ng·h/mL
Cmin ([4]; 300 mg BID, Cycle 1 Day 15, mean ± SD, n = 12): 790 ± 345 ng/mL
Race ([4]; 300 mg BID, n = 12): 0.74 ± 0.31
Free AUC0-12 (mean free plasma) ([4]; 400 mg BID with 200 mg run-in): 396 ± 222 ng·h/mL
Cmin ([4]; 400 mg BID with 200 mg run-in, Cycle 1 Day 22, mean ± SD, n = 24): 1120 ± 806 ng/mL
Race ([4]; 400 mg BID with 200 mg run-in, n = 24): 0.97 ± 0.29
mean exposure on C1D8 (200 mg BID 7 days then 400 mg BID) compared to C1D1 of 300 mg BID ([4]; human, in vivo): lower mean exposure
mean free plasma AUC0-12, higher at 400 mg BID with 200 mg run-in than at 300 mg BID ([4]; human, in vivo): about 44%
AUC(0-t) ([4]; human, 300 mg, 300 mg BID, Cycle 1 Day 1, mean ± SD, n = 12, read-out: AUC0-12): 26200 ± 11100 ng·h/mL
Cmax ([4]; human, 300 mg, 300 mg BID, Cycle 1 Day 1, mean ± SD, n = 12): 4600 ± 2300 ng/mL
AUC(0-t) ([4]; human, 300 mg, 300 mg BID, Cycle 1 Day 15, mean ± SD, n = 12, read-out: AUC0-12): 16800 ± 5380 ng·h/mL
Cmax ([4]; human, 300 mg, 300 mg BID, Cycle 1 Day 15, mean ± SD, n = 12): 2860 ± 690 ng/mL
AUC(0-t) ([4]; human, 300 mg, individual patient 10001-00022, 300 mg BID, C1 Day 1 (footnote a: AUC0-8), read-out: AUC0-8): 35900 ng·h/mL
AUC(0-t) ([4]; human, 400 mg BID, 400 mg BID with 200 mg run-in, Cycle 1 Day 8, mean ± SD, n = 24, read-out: AUC0-12): 24400 ± 12100 ng·h/mL
Cmax ([4]; human, 400 mg BID, 400 mg BID with 200 mg run-in, Cycle 1 Day 8, mean ± SD, n = 24): 3930 ± 1880 ng/mL
AUC(0-t) ([4]; human, 400 mg BID, 400 mg BID with 200 mg run-in, Cycle 1 Day 22, mean ± SD, n = 24, read-out: AUC0-12): 21500 ± 10800 ng·h/mL
